Numbers after ± are expanded uncertainties.
Experiment: isobaric coefficient of expansion
Conditions: Liquid, DSC

CCCCCCCCCCCC [dodecane]
isobaric coefficient of expansion
Conditions	278.15 K	288.15 K	298.15 K	308.15 K	318.15 K	328.15 K	338.15 K	348.15 K
5000 kPa	0.000913 ± 2.2e-05 1/K	0.000925 ± 2.3e-05 1/K	0.00094 ± 2.3e-05 1/K	0.000953 ± 2.3e-05 1/K	0.000964 ± 2.4e-05 1/K	0.000975 ± 2.4e-05 1/K	0.000989 ± 2.4e-05 1/K	0.000999 ± 2.4e-05 1/K
10000 kPa	0.000896 ± 2.2e-05 1/K	0.000902 ± 2.2e-05 1/K	0.000916 ± 2.2e-05 1/K	0.000924 ± 2.3e-05 1/K	0.000932 ± 2.3e-05 1/K	0.000941 ± 2.3e-05 1/K	0.00095 ± 2.3e-05 1/K	0.000958 ± 2.3e-05 1/K
15000 kPa	0.000874 ± 2.1e-05 1/K	0.000881 ± 2.2e-05 1/K	0.000893 ± 2.2e-05 1/K	0.000899 ± 2.2e-05 1/K	0.000908 ± 2.2e-05 1/K	0.000913 ± 2.2e-05 1/K	0.000918 ± 2.2e-05 1/K	0.000921 ± 2.3e-05 1/K
20000 kPa	0.000854 ± 2.1e-05 1/K	0.00086 ± 2.1e-05 1/K	0.000869 ± 2.1e-05 1/K	0.000874 ± 2.1e-05 1/K	0.000876 ± 2.1e-05 1/K	0.000884 ± 2.2e-05 1/K	0.000888 ± 2.2e-05 1/K	0.000891 ± 2.2e-05 1/K
25000 kPa	0.000838 ± 2.1e-05 1/K	0.000842 ± 2.1e-05 1/K	0.000848 ± 2.1e-05 1/K	0.00085 ± 2.1e-05 1/K	0.000851 ± 2.1e-05 1/K	0.000859 ± 2.1e-05 1/K	0.000863 ± 2.1e-05 1/K	0.000863 ± 2.1e-05 1/K
30000 kPa	0.000821 ± 2e-05 1/K	0.000826 ± 2e-05 1/K	0.000827 ± 2e-05 1/K	0.000831 ± 2e-05 1/K	0.000831 ± 2e-05 1/K	0.000835 ± 2e-05 1/K	0.000838 ± 2.1e-05 1/K	0.000837 ± 2.1e-05 1/K
35000 kPa	0.000805 ± 2e-05 1/K	0.000806 ± 2e-05 1/K	0.000807 ± 2e-05 1/K	0.00081 ± 2e-05 1/K	0.000809 ± 2e-05 1/K	0.000813 ± 2e-05 1/K	0.000815 ± 2e-05 1/K	0.000813 ± 2e-05 1/K
40000 kPa	0.000786 ± 1.9e-05 1/K	0.00079 ± 1.9e-05 1/K	0.000788 ± 1.9e-05 1/K	0.000792 ± 1.9e-05 1/K	0.000787 ± 1.9e-05 1/K	0.000791 ± 1.9e-05 1/K	0.000788 ± 1.9e-05 1/K	0.00079 ± 1.9e-05 1/K
45000 kPa	0.000772 ± 1.9e-05 1/K	0.000778 ± 1.9e-05 1/K	0.000775 ± 1.9e-05 1/K	0.000773 ± 1.9e-05 1/K	0.000768 ± 1.9e-05 1/K	0.000774 ± 1.9e-05 1/K	0.000773 ± 1.9e-05 1/K	0.00077 ± 1.9e-05 1/K
50000 kPa	0.00076 ± 1.9e-05 1/K	0.000761 ± 1.9e-05 1/K	0.00076 ± 1.9e-05 1/K	0.000755 ± 1.8e-05 1/K	0.000754 ± 1.8e-05 1/K	0.000757 ± 1.9e-05 1/K	0.000754 ± 1.8e-05 1/K	0.000753 ± 1.8e-05 1/K
55000 kPa	0.000751 ± 1.8e-05 1/K	0.000745 ± 1.8e-05 1/K	0.000744 ± 1.8e-05 1/K	0.000745 ± 1.8e-05 1/K	0.000739 ± 1.8e-05 1/K	0.000742 ± 1.8e-05 1/K	0.00074 ± 1.8e-05 1/K	0.000737 ± 1.8e-05 1/K

CCCCCCCCCCCCC [tridecane]
isobaric coefficient of expansion
Conditions	288.15 K	298.15 K	308.15 K	318.15 K	328.15 K	338.15 K	348.15 K
5000 kPa	0.00088 ± 2.2e-05 1/K	0.000891 ± 2.2e-05 1/K	0.000905 ± 2.2e-05 1/K	0.000919 ± 2.3e-05 1/K	0.000936 ± 2.3e-05 1/K	0.000958 ± 2.3e-05 1/K	0.00098 ± 2.4e-05 1/K
10000 kPa	0.00086 ± 2.1e-05 1/K	0.000868 ± 2.1e-05 1/K	0.00088 ± 2.2e-05 1/K	0.000892 ± 2.2e-05 1/K	0.000903 ± 2.2e-05 1/K	0.000917 ± 2.2e-05 1/K	0.000935 ± 2.3e-05 1/K
15000 kPa	0.00084 ± 2.1e-05 1/K	0.00085 ± 2.1e-05 1/K	0.000858 ± 2.1e-05 1/K	0.000865 ± 2.1e-05 1/K	0.00087 ± 2.1e-05 1/K	0.000882 ± 2.2e-05 1/K	0.000896 ± 2.2e-05 1/K
20000 kPa	0.000827 ± 2e-05 1/K	0.000828 ± 2e-05 1/K	0.000835 ± 2e-05 1/K	0.000838 ± 2.1e-05 1/K	0.000844 ± 2.1e-05 1/K	0.000853 ± 2.1e-05 1/K	0.000863 ± 2.1e-05 1/K
25000 kPa	0.000811 ± 2e-05 1/K	0.000812 ± 2e-05 1/K	0.000814 ± 2e-05 1/K	0.000818 ± 2e-05 1/K	0.00082 ± 2e-05 1/K	0.000827 ± 2e-05 1/K	0.000833 ± 2e-05 1/K
30000 kPa	0.000796 ± 1.9e-05 1/K	0.000799 ± 2e-05 1/K	0.000796 ± 1.9e-05 1/K	0.000799 ± 2e-05 1/K	0.0008 ± 2e-05 1/K	0.000801 ± 2e-05 1/K	0.000807 ± 2e-05 1/K
35000 kPa	0.000777 ± 1.9e-05 1/K	0.000782 ± 1.9e-05 1/K	0.000781 ± 1.9e-05 1/K	0.000781 ± 1.9e-05 1/K	0.000782 ± 1.9e-05 1/K	0.000783 ± 1.9e-05 1/K	0.000784 ± 1.9e-05 1/K
40000 kPa	0.000772 ± 1.9e-05 1/K	0.000771 ± 1.9e-05 1/K	0.000765 ± 1.9e-05 1/K	0.000763 ± 1.9e-05 1/K	0.000761 ± 1.9e-05 1/K	0.000761 ± 1.9e-05 1/K	0.000756 ± 1.9e-05 1/K
45000 kPa	0.000754 ± 1.8e-05 1/K	0.000755 ± 1.8e-05 1/K	0.00075 ± 1.8e-05 1/K	0.000748 ± 1.8e-05 1/K	0.000745 ± 1.8e-05 1/K	0.000741 ± 1.8e-05 1/K	0.000741 ± 1.8e-05 1/K
50000 kPa	0.000744 ± 1.8e-05 1/K	0.000744 ± 1.8e-05 1/K	0.000735 ± 1.8e-05 1/K	0.000734 ± 1.8e-05 1/K	0.000728 ± 1.8e-05 1/K	0.000728 ± 1.8e-05 1/K	0.000723 ± 1.8e-05 1/K
55000 kPa	0.000722 ± 1.8e-05 1/K	0.000725 ± 1.8e-05 1/K	0.000718 ± 1.8e-05 1/K	0.000718 ± 1.8e-05 1/K	0.000714 ± 1.7e-05 1/K	0.000714 ± 1.7e-05 1/K	0.000709 ± 1.7e-05 1/K

CCCCCCCCCCCCCC [tetradecane]
isobaric coefficient of expansion
Conditions	298.15 K	308.15 K	318.15 K	328.15 K	338.15 K	348.15 K
5000 kPa	0.000909 ± 2.2e-05 1/K	0.000913 ± 2.2e-05 1/K	0.000918 ± 2.2e-05 1/K	0.000922 ± 2.3e-05 1/K	0.000931 ± 2.3e-05 1/K	0.000941 ± 2.3e-05 1/K
10000 kPa	0.000881 ± 2.2e-05 1/K	0.000884 ± 2.2e-05 1/K	0.00089 ± 2.2e-05 1/K	0.00089 ± 2.2e-05 1/K	0.000897 ± 2.2e-05 1/K	0.0009 ± 2.2e-05 1/K
15000 kPa	0.00086 ± 2.1e-05 1/K	0.000861 ± 2.1e-05 1/K	0.000863 ± 2.1e-05 1/K	0.000859 ± 2.1e-05 1/K	0.000863 ± 2.1e-05 1/K	0.000867 ± 2.1e-05 1/K
20000 kPa	0.000837 ± 2e-05 1/K	0.000836 ± 2e-05 1/K	0.000837 ± 2e-05 1/K	0.000833 ± 2e-05 1/K	0.000835 ± 2e-05 1/K	0.000839 ± 2.1e-05 1/K
25000 kPa	0.000815 ± 2e-05 1/K	0.000814 ± 2e-05 1/K	0.000815 ± 2e-05 1/K	0.00081 ± 2e-05 1/K	0.00081 ± 2e-05 1/K	0.000812 ± 2e-05 1/K
30000 kPa	0.000798 ± 2e-05 1/K	0.000793 ± 1.9e-05 1/K	0.000791 ± 1.9e-05 1/K	0.000789 ± 1.9e-05 1/K	0.000789 ± 1.9e-05 1/K	0.000789 ± 1.9e-05 1/K
35000 kPa	0.00078 ± 1.9e-05 1/K	0.000777 ± 1.9e-05 1/K	0.000774 ± 1.9e-05 1/K	0.00077 ± 1.9e-05 1/K	0.000768 ± 1.9e-05 1/K	0.000768 ± 1.9e-05 1/K
40000 kPa	0.000764 ± 1.9e-05 1/K	0.000761 ± 1.9e-05 1/K	0.000756 ± 1.9e-05 1/K	0.000753 ± 1.8e-05 1/K	0.000749 ± 1.8e-05 1/K	0.000747 ± 1.8e-05 1/K
45000 kPa	0.00075 ± 1.8e-05 1/K	0.000742 ± 1.8e-05 1/K	0.000738 ± 1.8e-05 1/K	0.000735 ± 1.8e-05 1/K	0.000732 ± 1.8e-05 1/K	0.000726 ± 1.8e-05 1/K
50000 kPa	0.000737 ± 1.8e-05 1/K	0.00073 ± 1.8e-05 1/K	0.000722 ± 1.8e-05 1/K	0.00072 ± 1.8e-05 1/K	0.000718 ± 1.8e-05 1/K	0.000711 ± 1.7e-05 1/K
55000 kPa	0.000725 ± 1.8e-05 1/K	0.000719 ± 1.8e-05 1/K	0.000714 ± 1.7e-05 1/K	0.000709 ± 1.7e-05 1/K	0.000705 ± 1.7e-05 1/K	0.000699 ± 1.7e-05 1/K

Source: the NIST ThermoML archive (doi:10.1021/je900757k)
